Source: ChEMBL document CHEMBL1146833, “A novel series of potent and selective IKK2 inhibitors” (Bioorg Med Chem Lett, 2004)
Where “and” joins values, the source holds several entries; their conditions need not be identical. Identical values can stand only once.

Key:
[1] = target: T1, Inhibitor of nuclear factor kappa-B kinase subunit beta (Homo sapiens, UniProt O14920); assay: Inhibitory activity against IKK2
T1 sequence (O14920 whole entry): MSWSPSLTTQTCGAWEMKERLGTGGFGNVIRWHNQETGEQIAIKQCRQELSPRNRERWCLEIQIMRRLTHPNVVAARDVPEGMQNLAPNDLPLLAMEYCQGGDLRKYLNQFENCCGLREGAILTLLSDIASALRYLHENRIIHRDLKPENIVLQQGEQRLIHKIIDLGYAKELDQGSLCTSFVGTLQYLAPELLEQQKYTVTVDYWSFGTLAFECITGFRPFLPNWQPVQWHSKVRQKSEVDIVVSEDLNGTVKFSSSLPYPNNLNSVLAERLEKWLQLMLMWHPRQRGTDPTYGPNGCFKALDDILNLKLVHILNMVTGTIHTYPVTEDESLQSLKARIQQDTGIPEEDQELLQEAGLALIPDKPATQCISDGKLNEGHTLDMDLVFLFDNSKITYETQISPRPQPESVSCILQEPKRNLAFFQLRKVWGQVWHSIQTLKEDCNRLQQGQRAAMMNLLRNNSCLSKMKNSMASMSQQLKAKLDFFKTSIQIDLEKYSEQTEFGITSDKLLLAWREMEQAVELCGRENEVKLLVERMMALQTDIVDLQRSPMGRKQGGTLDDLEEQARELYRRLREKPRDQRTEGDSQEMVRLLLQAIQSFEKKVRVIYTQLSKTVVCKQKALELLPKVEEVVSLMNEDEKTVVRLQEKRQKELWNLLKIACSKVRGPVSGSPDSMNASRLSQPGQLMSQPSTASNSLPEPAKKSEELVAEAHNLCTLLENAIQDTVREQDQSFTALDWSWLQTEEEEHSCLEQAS

[2] = target: T2, Inhibitor of nuclear factor kappa-B kinase subunit alpha (Homo sapiens, UniProt O15111); assay: Inhibitory activity against IKK1
T2 sequence (O15111 whole entry): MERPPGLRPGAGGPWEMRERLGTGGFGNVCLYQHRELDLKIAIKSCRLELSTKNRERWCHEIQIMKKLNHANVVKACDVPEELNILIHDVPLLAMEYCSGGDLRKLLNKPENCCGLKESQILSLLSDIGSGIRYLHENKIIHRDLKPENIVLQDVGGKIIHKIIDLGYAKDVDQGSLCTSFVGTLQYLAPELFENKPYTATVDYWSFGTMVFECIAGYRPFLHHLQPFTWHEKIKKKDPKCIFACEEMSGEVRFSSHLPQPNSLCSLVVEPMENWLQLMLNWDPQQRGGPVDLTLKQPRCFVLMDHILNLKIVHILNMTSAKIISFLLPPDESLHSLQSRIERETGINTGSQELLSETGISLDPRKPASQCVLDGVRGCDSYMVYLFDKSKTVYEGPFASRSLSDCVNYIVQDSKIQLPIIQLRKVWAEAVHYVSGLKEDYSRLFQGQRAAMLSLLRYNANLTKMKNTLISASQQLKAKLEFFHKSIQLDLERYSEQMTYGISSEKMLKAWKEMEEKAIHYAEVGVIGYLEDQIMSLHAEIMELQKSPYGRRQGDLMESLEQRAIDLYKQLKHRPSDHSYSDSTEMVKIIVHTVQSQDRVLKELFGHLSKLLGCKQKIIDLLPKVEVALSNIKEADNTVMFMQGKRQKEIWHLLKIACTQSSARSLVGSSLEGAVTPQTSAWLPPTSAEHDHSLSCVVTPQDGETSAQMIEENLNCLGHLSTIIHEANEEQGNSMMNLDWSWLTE

Homo sapiens = species: Homo sapiens; assay: Selectivity for IKK2/IKK1

Row | Compound | IC50 [1] | IC50 [2] | Selectivity (Homo sapiens)
1 | Cc1ccc(Nc2nccc(-c3ccc(S(=O)(=O)N4CCNCC4)cc3)n2)cc1 | 269 nM | 2090 nM | –
2 | O=S(=O)(c1ccc(-c2ccnc(Nc3cc(F)cc(F)c3)n2)cc1)N1CCNCC1 | 117 nM | 4070 nM | –
3 | COc1ccc(Nc2nccc(-c3ccc(S(=O)(=O)N4CCNCC4)cc3)n2)cc1 | 214 nM | 1230 nM | –
4 | NC(=O)Nc1ccc(Nc2nccc(-c3ccc(S(=O)(=O)N4CCNCC4)cc3)n2)cc1 | 155 nM | 1480 nM | 10
5 | COc1cc(Nc2nccc(-c3ccc(S(=O)(=O)N4CCNCC4)cc3)n2)cc(OC)c1OC | 145 nM | 155 nM | 1
6 | CC(=O)c1cc2cc(-c3ccc(Nc4nccc(-c5ccc(S(=O)(=O)N6CCNCC6)cc5)n4)cc3)ccc2o1 | 26 nM | 1700 nM | 65
7 | O=S(=O)(c1ccc(-c2ccnc(Nc3ccc(C(F)(F)F)cc3)n2)cc1)N1CCNCC1 | 513 nM | 3980 nM | 8
8 | NC(=O)c1c[nH]c2ccc(-c3ccc(Nc4nccc(-c5ccc(S(=O)(=O)N6CCNCC6)cc5)n4)cc3)cc12 | 550 nM and 146 nM | – | 6
9 | O=[N+]([O-])c1ccc(Nc2nccc(-c3ccc(S(=O)(=O)N4CCNCC4)cc3)n2)cc1 | 66 nM | 6920 nM | 105
10 | O=S(=O)(c1ccc(-c2ccnc(Nc3ccccc3)n2)cc1)N1CCNCC1 | 91 nM | 1170 nM | 13
11 | CCCCc1ccc(Nc2nccc(-c3ccc(S(=O)(=O)N4CCNCC4)cc3)n2)cc1 | 309 nM | 2690 nM | 9
12 | N#Cc1cccc(Nc2nccc(-c3ccc(S(=O)(=O)N4CCNCC4)cc3)n2)c1 | 83 nM | 5130 nM | 62
13 | NC(=O)c1ccc(Nc2nccc(-c3ccc(S(=O)(=O)N4CCNCC4)cc3)n2)cc1 | 48 nM | 3980 nM | 83
14 | NS(=O)(=O)c1ccc(Nc2nccc(-c3ccc(S(=O)(=O)N4CCNCC4)cc3)n2)cc1 | 11 nM | 245 nM | 21
15 | C[S+]([O-])c1ccc(Nc2nccc(-c3ccc(S(=O)(=O)N4CCNCC4)cc3)n2)cc1 (stereo unspecified) | 91 nM | 2340 nM | 26
